Test results as given in patent US11230538B2, “Herbicides” (SYNGENTA PARTICIPATIONS AG, priority 2016, dated 2022).

Tests used:
Format in all cases: in vivo
[1] = system: Alopecurus myosuroides (ALOMY); assay: B1 Pre-emergence herbicidal activity; parameters: key: 5=total damage to plant; 0=no damage to plant; details: pre-emergence application, rate 1000 g/ha, evaluated after 13 days
Method in brief: (§1)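 Damage was rated 13 days after treatment, from 0 for none to 5 for total. The spray, in acetone/water 50:50 with 0.5% Tween 20, was applied pre-emergence, one day after seeds were sown in soil. Plants grew under glasshouse control at 24/16 °C, 14 h light, 65% humidity.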

[2] = system: Avena fatua (AVEFA); assay: B1 Pre-emergence herbicidal activity; parameters: key: 5=total damage to plant; 0=no damage to plant; details: pre-emergence application, rate 1000 g/ha, evaluated after 13 days
Method in brief: as §1

[3] = system: Triticum aestivium (TRZAW); assay: B1 Pre-emergence herbicidal activity; parameters: key: 5=total damage to plant; 0=no damage to plant; details: pre-emergence application, rate 1000 g/ha, evaluated after 13 days
Method in brief: as §1

[4] = system: Echinochloa crus-galli (ECHCG); assay: B1 Pre-emergence herbicidal activity; details: pre-emergence application, rate 1000 g/ha, evaluated after 13 days
Method in brief: as §1

[5] = system: Lolium perenne (LOLPE); assay: B1 Pre-emergence herbicidal activity; parameters: key to Pre-emergence herbicidal activity, LOLPE (damage score 0-5): 5=total damage to plant; 0=no damage to plant; details: pre-emergence application, rate 1000 g/ha, evaluated after 13 days
Method in brief: as §1

[6] = system: Setaria fabenr (SETFA); assay: B1 Pre-emergence herbicidal activity; parameters: key to Pre-emergence herbicidal activity, SETFA (damage score 0-5): 5=total damage to plant; 0=no damage to plant; details: pre-emergence application, rate 1000 g/ha, evaluated after 13 days
Method in brief: as §1

[7] = system: Avena fatua (AVEFA); assay: B2 Post-emergence herbicidal activity; details: post-emergence application, rate 1000 g/ha, evaluated after 13 days
Method in brief: (§2)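 Injury was rated 13 days after treatment from 0 (no damage) to 5 (total damage). The spray, applied 8 days after sowing, was an aqueous solution of the active ingredient from an acetone/water (50:50) formulation with 0.5% Tween 20. Plants were kept at 24/16° C, 14 h light, 65% humidity.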

[8] = system: Echinochloa crus-galli (ECHCG); assay: B2 Post-emergence herbicidal activity; parameters: key to Post-emergence herbicidal activity, ECHCG (damage score 0-5): 5=total damage to plant; 0=no damage to plant; details: post-emergence application, rate 1000 g/ha, evaluated after 13 days
Method in brief: as §2

[9] = system: Lolium perenne (LOLPE); assay: B2 Post-emergence herbicidal activity; details: post-emergence application, rate 1000 g/ha, evaluated after 13 days
Method in brief: as §2

[10] = system: Alopecurus myosuroides (ALOMY); assay: B2 Post-emergence herbicidal activity; parameters: key: 5=total damage to plant; 0=no damage to plant; details: post-emergence application, rate 1000 g/ha, evaluated after 13 days
Method in brief: as §2

[11] = system: Setaria fabenri (SETFA); assay: B2 Post-emergence herbicidal activity; parameters: key: 5=total damage to plant; 0=no damage to plant; details: post-emergence application, rate 1000 g/ha, evaluated after 13 days
Method in brief: as §2

[12] = system: Triticum aestivium (TRZAW); assay: B2 Post-emergence herbicidal activity; parameters: key: 5=total damage to plant; 0=no damage to plant; details: post-emergence application, rate 1000 g/ha, evaluated after 13 days
Method in brief: as §2

`O=C1CCCN1c1ccc(-c2cncc(F)c2)nc1C(F)(F)F` [Compound C55] was tested, and the “Pre-emergence herbicidal activity, ALOMY (damage score 0-5)” value (“Pre-emergence herbicidal activity, ALOMY” below) [1] was 0, the “Pre-emergence herbicidal activity, AVEFA (damage score 0-5)” value (from here on “Pre-emergence herbicidal activity, AVEFA”) [2] was 1 and the “Pre-emergence herbicidal activity, TRAZW (damage score 0-5)” value (shortened to “Pre-emergence herbicidal activity, TRAZW”) [3] was 0. The “Pre-emergence herbicidal activity, ECHCG (damage score 0-5)” value (“Pre-emergence herbicidal activity, ECHCG” below) [4] was 1, the “Pre-emergence herbicidal activity, LOLPE (damage score 0-5)” value (from here on “Pre-emergence herbicidal activity, LOLPE”) [5] was 1 and the “Pre-emergence herbicidal activity, SETFA (damage score 0-5)” value (shortened to “Pre-emergence herbicidal activity, SETFA”) [6] was 4. For the same compound, the “Post-emergence herbicidal activity, AVEFA (damage score 0-5)” value [7] was 3, the “Post-emergence herbicidal activity, ECHCG (damage score 0-5)” value [8] was 4 and the “Post-emergence herbicidal activity, LOLPE (damage score 0-5)” value [9] was 2. The “Post-emergence herbicidal activity, ALOMY (damage score 0-5)” value [10] was 1, the “Post-emergence herbicidal activity, SETFA (damage score 0-5)” value [11] was 4 and the “Post-emergence herbicidal activity, TRAZW (damage score 0-5)” value [12] was 0.
With `O=C(CC(F)(F)F)Nc1ccc(-c2cncc(F)c2)nc1C(F)(F)F` [Compound C56] the “Pre-emergence herbicidal activity, ALOMY” value [1] was 0, the “Pre-emergence herbicidal activity, AVEFA” value [2] was 1 and the “Pre-emergence herbicidal activity, TRAZW” value [3] was 0. The “Pre-emergence herbicidal activity, ECHCG” value [4] was 3, the “Pre-emergence herbicidal activity, LOLPE” value [5] was 0 and the “Pre-emergence herbicidal activity, SETFA” value [6] was 4. The “Post-emergence herbicidal activity, AVEFA (damage score 0-5)” value [7] was 3, the “Post-emergence herbicidal activity, ECHCG (damage score 0-5)” value [8] was 4 and the “Post-emergence herbicidal activity, LOLPE (damage score 0-5)” value [9] was 2. The “Post-emergence herbicidal activity, ALOMY (damage score 0-5)” value [10] was 0, the “Post-emergence herbicidal activity, SETFA (damage score 0-5)” value [11] was 4 and the “Post-emergence herbicidal activity, TRAZW (damage score 0-5)” value [12] was 1.
For `CCC(=O)N(CC#N)c1ccc(-c2cncc(F)c2)nc1C(F)(F)F` [Compound C57], the “Pre-emergence herbicidal activity, ALOMY” value [1] was 0, the “Pre-emergence herbicidal activity, AVEFA” value [2] was 1 and the “Pre-emergence herbicidal activity, TRAZW” value [3] was 0. For the same compound, the “Pre-emergence herbicidal activity, ECHCG” value [4] was 3, the “Pre-emergence herbicidal activity, LOLPE” value [5] was 0 and the “Pre-emergence herbicidal activity, SETFA” value [6] was 4. For the same compound, the “Post-emergence herbicidal activity, AVEFA (damage score 0-5)” value [7] was 2, the “Post-emergence herbicidal activity, ECHCG (damage score 0-5)” value [8] was 4 and the “Post-emergence herbicidal activity, LOLPE (damage score 0-5)” value [9] was 2. The “Post-emergence herbicidal activity, ALOMY (damage score 0-5)” value [10] was 0, the “Post-emergence herbicidal activity, SETFA (damage score 0-5)” value [11] was 4 and the “Post-emergence herbicidal activity, TRAZW (damage score 0-5)” value [12] was 0.
For `CC(C)C(=O)N(CC#N)c1ccc(-c2cncc(F)c2)nc1C(F)(F)F` [Compound C58], the “Pre-emergence herbicidal activity, ALOMY” value [1] was 0, the “Pre-emergence herbicidal activity, AVEFA” value [2] was 0 and the “Pre-emergence herbicidal activity, TRAZW” value [3] was 0. The “Pre-emergence herbicidal activity, ECHCG” value [4] was 3, the “Pre-emergence herbicidal activity, LOLPE” value [5] was 0 and the “Pre-emergence herbicidal activity, SETFA” value [6] was 5. The “Post-emergence herbicidal activity, AVEFA (damage score 0-5)” value [7] was 2, the “Post-emergence herbicidal activity, ECHCG (damage score 0-5)” value [8] was 4 and the “Post-emergence herbicidal activity, LOLPE (damage score 0-5)” value [9] was 1. The “Post-emergence herbicidal activity, ALOMY (damage score 0-5)” value [10] was 0, the “Post-emergence herbicidal activity, SETFA (damage score 0-5)” value [11] was 5 and the “Post-emergence herbicidal activity, TRAZW (damage score 0-5)” value [12] was 0.
For `O=C(Nc1ccc(-c2cncc(F)c2)nc1C(F)(F)F)C1CC1` [Compound C59], the “Pre-emergence herbicidal activity, ALOMY” value [1] was 0, the “Pre-emergence herbicidal activity, AVEFA” value [2] was 3 and the “Pre-emergence herbicidal activity, TRAZW” value [3] was 0. The “Pre-emergence herbicidal activity, ECHCG” value [4] was 4, the “Pre-emergence herbicidal activity, LOLPE” value [5] was 1 and the “Pre-emergence herbicidal activity, SETFA” value [6] was 5. For the same compound, the “Post-emergence herbicidal activity, AVEFA (damage score 0-5)” value [7] was 3, the “Post-emergence herbicidal activity, ECHCG (damage score 0-5)” value [8] was 5 and the “Post-emergence herbicidal activity, LOLPE (damage score 0-5)” value [9] was 3. The “Post-emergence herbicidal activity, ALOMY (damage score 0-5)” value [10] was 1, the “Post-emergence herbicidal activity, SETFA (damage score 0-5)” value [11] was 4 and the “Post-emergence herbicidal activity, TRAZW (damage score 0-5)” value [12] was 0.
`O=C(Nc1ccc(-c2cncnc2)nc1C(F)(F)F)C(Cl)(Cl)Cl` [Compound C60] was tested, and the “Pre-emergence herbicidal activity, ALOMY” value [1] was 0, the “Pre-emergence herbicidal activity, AVEFA” value [2] was 2 and the “Pre-emergence herbicidal activity, TRAZW” value [3] was 0. For the same compound, the “Pre-emergence herbicidal activity, ECHCG” value [4] was 3, the “Pre-emergence herbicidal activity, LOLPE” value [5] was 0 and the “Pre-emergence herbicidal activity, SETFA” value [6] was 5. For the same compound, the “Post-emergence herbicidal activity, AVEFA (damage score 0-5)” value [7] was 3, the “Post-emergence herbicidal activity, ECHCG (damage score 0-5)” value [8] was 4 and the “Post-emergence herbicidal activity, LOLPE (damage score 0-5)” value [9] was 3. The “Post-emergence herbicidal activity, ALOMY (damage score 0-5)” value [10] was 0, the “Post-emergence herbicidal activity, SETFA (damage score 0-5)” value [11] was 4 and the “Post-emergence herbicidal activity, TRAZW (damage score 0-5)” value [12] was 0.
